Assay: xn = mol fraction of the nth substance listed
Details: Liquid, Vibrating tube method

CCCCCCC [heptane] + O=C=O
Details | mass density [kg/m3]
322.91 K, 22022 kPa, x2 = 0.7514 | 759.49
322.91 K, 23010 kPa, x2 = 0.7514 | 762.14
322.91 K, 23983 kPa, x2 = 0.7514 | 764.78
322.91 K, 24907 kPa, x2 = 0.7514 | 767.21
322.94 K, 3016 kPa, x2 = 0.0218 | 663.11
322.94 K, 4008 kPa, x2 = 0.0218 | 664.28
322.94 K, 5006 kPa, x2 = 0.0218 | 665.41
322.94 K, 5006 kPa, x2 = 0.5085 | 691.2
322.94 K, 6002 kPa, x2 = 0.0218 | 666.44
322.94 K, 6004 kPa, x2 = 0.5085 | 693.82
322.94 K, 7003 kPa, x2 = 0.0218 | 667.61
322.94 K, 7005 kPa, x2 = 0.5085 | 696.6
322.94 K, 8006 kPa, x2 = 0.0218 | 668.67
322.94 K, 8009 kPa, x2 = 0.5085 | 698.81
322.94 K, 8995 kPa, x2 = 0.0218 | 669.76
322.94 K, 9010 kPa, x2 = 0.5085 | 701.04
322.94 K, 10002 kPa, x2 = 0.0218 | 670.79
322.94 K, 10006 kPa, x2 = 0.5085 | 703.24
322.94 K, 10997 kPa, x2 = 0.5085 | 705.29
322.94 K, 11002 kPa, x2 = 0.0218 | 671.78
322.94 K, 11999 kPa, x2 = 0.0218 | 672.82
322.94 K, 12001 kPa, x2 = 0.5085 | 707.34
322.94 K, 12998 kPa, x2 = 0.5085 | 709.37
322.94 K, 13000 kPa, x2 = 0.0218 | 673.79
322.94 K, 14001 kPa, x2 = 0.0218 | 674.79
322.94 K, 14004 kPa, x2 = 0.5085 | 711.26
322.94 K, 15002 kPa, x2 = 0.0218 | 675.77
322.94 K, 15009 kPa, x2 = 0.5085 | 713.17
322.94 K, 15998 kPa, x2 = 0.0218 | 676.69
322.94 K, 16004 kPa, x2 = 0.5085 | 715.02
322.94 K, 17002 kPa, x2 = 0.0218 | 677.65
322.94 K, 17009 kPa, x2 = 0.5085 | 716.84
322.94 K, 18003 kPa, x2 = 0.0218 | 678.53
322.94 K, 18003 kPa, x2 = 0.5085 | 718.61
322.94 K, 18995 kPa, x2 = 0.0218 | 679.45
322.94 K, 19009 kPa, x2 = 0.5085 | 720.34
322.94 K, 20004 kPa, x2 = 0.5085 | 722.03
322.94 K, 20009 kPa, x2 = 0.0218 | 680.41
322.94 K, 20999 kPa, x2 = 0.0218 | 681.28
322.94 K, 21007 kPa, x2 = 0.5085 | 723.66
322.94 K, 21995 kPa, x2 = 0.5085 | 725.31
322.94 K, 22005 kPa, x2 = 0.0218 | 682.14
322.94 K, 23002 kPa, x2 = 0.5085 | 726.96
322.94 K, 23011 kPa, x2 = 0.0218 | 683.03
322.94 K, 24002 kPa, x2 = 0.5085 | 728.57
322.94 K, 24009 kPa, x2 = 0.0218 | 683.94
322.94 K, 24961 kPa, x2 = 0.0218 | 684.87
322.94 K, 25011 kPa, x2 = 0.5085 | 730.19
322.96 K, 12028 kPa, x2 = 0.9496 | 666.43
322.96 K, 13010 kPa, x2 = 0.9496 | 691.64
322.96 K, 13994 kPa, x2 = 0.9496 | 711.79
322.96 K, 14997 kPa, x2 = 0.9496 | 728.42
322.96 K, 16006 kPa, x2 = 0.9496 | 742.98
322.96 K, 17008 kPa, x2 = 0.9496 | 755.69
322.96 K, 17999 kPa, x2 = 0.9496 | 766.84
322.96 K, 19001 kPa, x2 = 0.9496 | 777.08
322.96 K, 20001 kPa, x2 = 0.9496 | 786.26
322.96 K, 20994 kPa, x2 = 0.9496 | 794.84
322.96 K, 21997 kPa, x2 = 0.9496 | 802.85
322.96 K, 23019 kPa, x2 = 0.9496 | 810.46
322.96 K, 23997 kPa, x2 = 0.9496 | 817.33
322.96 K, 24395 kPa, x2 = 0.9496 | 820.02
332.7 K, 12055 kPa, x2 = 0.9496 | 554.72
332.7 K, 13001 kPa, x2 = 0.9496 | 599.39
332.7 K, 14003 kPa, x2 = 0.9496 | 633.33
332.7 K, 14995 kPa, x2 = 0.9496 | 659.11
332.7 K, 16003 kPa, x2 = 0.9496 | 680.52
332.7 K, 16980 kPa, x2 = 0.9496 | 697.86
332.7 K, 18002 kPa, x2 = 0.9496 | 713.39
332.7 K, 19004 kPa, x2 = 0.9496 | 727.03
332.7 K, 19979 kPa, x2 = 0.9496 | 738.9
332.7 K, 20995 kPa, x2 = 0.9496 | 749.98
332.7 K, 22006 kPa, x2 = 0.9496 | 760
332.7 K, 23011 kPa, x2 = 0.9496 | 769.32
332.7 K, 24046 kPa, x2 = 0.9496 | 778.17
332.7 K, 24505 kPa, x2 = 0.9496 | 781.98
332.72 K, 5013 kPa, x2 = 0.3148 | 672.27
332.72 K, 6004 kPa, x2 = 0.3148 | 673.82
332.72 K, 7000 kPa, x2 = 0.3148 | 675.27
332.72 K, 8008 kPa, x2 = 0.3148 | 676.79
332.72 K, 9003 kPa, x2 = 0.3148 | 678.48
332.72 K, 10007 kPa, x2 = 0.3148 | 680.17
332.72 K, 11008 kPa, x2 = 0.3148 | 681.84
332.72 K, 11995 kPa, x2 = 0.3148 | 683.4
332.72 K, 12994 kPa, x2 = 0.3148 | 684.97
332.72 K, 14002 kPa, x2 = 0.3148 | 686.5
332.72 K, 15009 kPa, x2 = 0.3148 | 688.01
332.72 K, 16005 kPa, x2 = 0.3148 | 689.47
332.72 K, 16994 kPa, x2 = 0.3148 | 690.88
332.72 K, 17996 kPa, x2 = 0.3148 | 692.28
332.72 K, 19002 kPa, x2 = 0.3148 | 693.66
332.72 K, 20001 kPa, x2 = 0.3148 | 695.02
332.72 K, 21004 kPa, x2 = 0.3148 | 696.34
332.72 K, 22014 kPa, x2 = 0.3148 | 697.64
332.72 K, 22998 kPa, x2 = 0.3148 | 698.95
332.72 K, 24000 kPa, x2 = 0.3148 | 700.22
332.72 K, 25010 kPa, x2 = 0.3148 | 701.53
332.73 K, 9976 kPa, x2 = 0.7514 | 687.42
332.73 K, 11027 kPa, x2 = 0.7514 | 694.77
332.73 K, 12005 kPa, x2 = 0.7514 | 701.07
332.73 K, 13004 kPa, x2 = 0.7514 | 706.72
332.73 K, 14002 kPa, x2 = 0.7514 | 712.07
332.73 K, 15007 kPa, x2 = 0.7514 | 716.96
332.73 K, 16008 kPa, x2 = 0.7514 | 721.73
332.73 K, 17006 kPa, x2 = 0.7514 | 726.16
332.73 K, 17992 kPa, x2 = 0.7514 | 730.25
332.73 K, 19005 kPa, x2 = 0.7514 | 734.18
332.73 K, 19992 kPa, x2 = 0.7514 | 737.97
332.73 K, 21048 kPa, x2 = 0.7514 | 741.67
332.73 K, 21991 kPa, x2 = 0.7514 | 745.02
332.73 K, 22997 kPa, x2 = 0.7514 | 748.43
332.73 K, 23997 kPa, x2 = 0.7514 | 751.86
332.73 K, 24860 kPa, x2 = 0.7514 | 754.69
332.8 K, 3011 kPa, x2 = 0.0218 | 654.41
332.8 K, 4004 kPa, x2 = 0.0218 | 655.67
332.8 K, 5003 kPa, x2 = 0.0218 | 656.85
332.8 K, 6000 kPa, x2 = 0.0218 | 658.03
332.8 K, 7004 kPa, x2 = 0.0218 | 659.2
332.8 K, 8007 kPa, x2 = 0.0218 | 660.37
332.8 K, 9001 kPa, x2 = 0.0218 | 661.51
332.8 K, 10004 kPa, x2 = 0.0218 | 662.62
332.8 K, 10998 kPa, x2 = 0.0218 | 663.71
332.8 K, 12002 kPa, x2 = 0.0218 | 664.82
332.8 K, 12996 kPa, x2 = 0.0218 | 665.83
332.8 K, 13999 kPa, x2 = 0.0218 | 666.94
332.8 K, 15004 kPa, x2 = 0.0218 | 667.94
332.8 K, 16005 kPa, x2 = 0.0218 | 668.95
332.8 K, 16998 kPa, x2 = 0.0218 | 669.95
332.8 K, 18005 kPa, x2 = 0.0218 | 670.91
332.8 K, 19003 kPa, x2 = 0.0218 | 671.91
332.8 K, 20002 kPa, x2 = 0.0218 | 672.83
332.8 K, 21008 kPa, x2 = 0.0218 | 673.8
332.8 K, 21997 kPa, x2 = 0.0218 | 674.76
332.8 K, 22998 kPa, x2 = 0.0218 | 675.69
332.8 K, 24009 kPa, x2 = 0.0218 | 676.63
